US9790503B2, “VHZ for diagnosis and treatment of cancer” (AGENCY FOR SCIENCE, TECHNOLOGY AND RESEARCH (A*STAR), priority 2007, dated 2017)

Biological target: T1, VHZ-GST (Homo sapiens, UniProt Q9BVJ7)
T1 construct: made in house
T1 sequence (Q9BVJ7 1-150): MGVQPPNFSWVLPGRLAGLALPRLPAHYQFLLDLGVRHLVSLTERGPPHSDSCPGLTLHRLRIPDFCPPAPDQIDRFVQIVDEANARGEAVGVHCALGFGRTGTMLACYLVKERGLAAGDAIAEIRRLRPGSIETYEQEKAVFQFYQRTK
Experiment: Tyrosine phosphatase assay (EnzChek kit, fluorogenic substrate)
Assay type: biochemical
Conditions: 10 μM sodium orthovanadate added to the reaction; VHZ-GST 0.675 picomoles; fluorescence excitation/emission 358/452 nm
Protocol: The EnzChek kit (Invitrogen, R22065) is used. As per the manufacturer's protocol, the fluorogenic substrate is reconstituted in the assay wells with buffer; the desired potential PTPases (0.675 picomole for each protein: VHZ-GST, VHZ-GST+Phosphatase inhibitor, VHZ(C95S)-GST, and control GST) are added to the wells and incubated 30 min or 90 min respectively. The fluorescence is then quantified using a Gemini XPS microplate spectrofluorometer (Molecular Devices). Fluorescence is measured at 10 minute intervals at the excitation and emission wavelengths of 358 and 452 nm, respectively. The phosphatase inhibitor sodium orthovanadate (10 μM) is used in the assay as a negative control.

With [Na+].[Na+].[Na+].[O]=[V]([O-])([O-])[O-] [sodium orthovanadate] the “PTPase activity of VHZ” value was “completely abolished”.
